These results are taken from paper PMC6010102, “N-thioalkylcarbazoles derivatives as new anti-proliferative agents: synthesis, characterisation and molecular mechanism evaluation” (Journal of Enzyme Inhibition and Medicinal Chemistry, 2018).

Assay [1] concerns MCF-7 human breast cancer cells. The assay is described as follows: MTT cell viability, MCF-7. It counts as cell-based. To be noted: MCF7, 72 h exposure, mean ± SD, read-out: Antiproliferative activity IC50, MCF-7. The text has this:
(§1) The six cell lines used in this work were purchased from American Type Culture Collection (ATCC, Manassas, VA). MCF-7 human breast cancer cells, oestrogen receptor (ER) positives, were maintained in Dulbecco’s Modified Eagle’s Medium/Nutrient Mixture F-12 Ham (DMEM/F12), supplemented with 5% foetal bovine serum (FBS) and 100 U/ml penicillin/streptomycin, as previously described. MDA-MB-231, human breast cancer cells, oestrogen receptor (ER) negative, were maintained in Dulbecco’s Modified Eagle’s Medium/Nutrient Mixture F-12 Ham (DMEM/F12), supplemented with 5% Newborn Calf Serum (NCS) and 100 U/ml penicillin/streptomycin. HeLa human epithelial cervix carcinoma cells, oestrogen receptor (ER) negative, and ISHIKAWA human endometrial adenocarcinoma cell, oestrogen receptor positive, were maintained in minimum essential medium (MEM), supplemented with 10% FBS, 100 U/ml penicillin/streptomycin and 1% non-essential amino acid. 3T3-L1 cells line of murine fibroblasts of embryonic type, were maintained in DMEM, supplemented with 10% NCS and 100 U/ml penicillin/streptomycin. MCF-10A human mammary epithelial cells were cultured in DMEM/F12 medium, supplemented with 5% horse serum (HS) (Eurobio, Les Ullis, Cedex, France), 100 U/ml penicillin/streptomycin, […] hydrocortisone, 20 ng/ml hEGF (human epidermal growth factor), 10 μg/ml insulin and […] cholera enterotoxin (Sigma-Aldrich, Milano, Italy). Cells were maintained at 37 °C in a humidified atmosphere of 95% air and 5% CO2 and periodically screened for contamination.
(§2) MDA-MB-231, MCF-7, HeLa and ISHIKAWA cells were grown in complete medium and, before being treated, they were serum deprived for 24 h, to allow cell cycle synchronisation. Then cells were grown in phenol red-free medium supplemented with 1% DCC (destran-coated charcoal treated) FBS, then treated with increasing concentrations (0.1, 1, 10, 20, 40, 100 µM) of each compound for 72 h. Compounds were dissolved in dimethylsulphoxide (DMSO) (Sigma, St. Louis, MO) and diluted in each cell medium. Untreated cells, used as a control, were added with DMSO alone (final concentration 0.1%). Cell viability was assessed using the 3-[4,5-dimethylthiazol-2-yl]-2,5-diphenyltetrazolium bromide reagent (MTT), according to the protocol from manufacturer (Sigma-Aldrich, Milan, Italy), as previously described[37] ^, [38]. For each sample, the mean absorbance, measured at 570 nm, was expressed as a percentage of the control and plotted versus drug concentration to determine for each cell line the IC50 values (namely, drugs concentrations able to reduce cell viability of 50% with respect to the control), using GraphPad Prism 5 Software (GraphPad Inc., San Diego, CA)[39]. Each experiment was carried out in quadruplicate. Standard deviations (SD) were shown.

Assay [2] deals with HeLa human epithelial cervix carcinoma cells. The assay is described as follows: MTT cell viability, HeLa. The following applies: 72 h exposure, mean ± SD, read-out: Antiproliferative activity IC50, HeLa. Format: cell-based.
Excerpt: as §1, §2

Assay [3] deals with MDA-MB-231 human breast cancer cells. In words: MTT cell viability, MDA-MB-231. To be noted: 72 h exposure, mean ± SD, read-out: Antiproliferative activity IC50, MDA-MB-231. It counts as cell-based.
Excerpt: as §1, §2

The target of the next assay is T1, hTopoI (Homo sapiens, UniProt P11387).
T1 sequence (P11387 1-765): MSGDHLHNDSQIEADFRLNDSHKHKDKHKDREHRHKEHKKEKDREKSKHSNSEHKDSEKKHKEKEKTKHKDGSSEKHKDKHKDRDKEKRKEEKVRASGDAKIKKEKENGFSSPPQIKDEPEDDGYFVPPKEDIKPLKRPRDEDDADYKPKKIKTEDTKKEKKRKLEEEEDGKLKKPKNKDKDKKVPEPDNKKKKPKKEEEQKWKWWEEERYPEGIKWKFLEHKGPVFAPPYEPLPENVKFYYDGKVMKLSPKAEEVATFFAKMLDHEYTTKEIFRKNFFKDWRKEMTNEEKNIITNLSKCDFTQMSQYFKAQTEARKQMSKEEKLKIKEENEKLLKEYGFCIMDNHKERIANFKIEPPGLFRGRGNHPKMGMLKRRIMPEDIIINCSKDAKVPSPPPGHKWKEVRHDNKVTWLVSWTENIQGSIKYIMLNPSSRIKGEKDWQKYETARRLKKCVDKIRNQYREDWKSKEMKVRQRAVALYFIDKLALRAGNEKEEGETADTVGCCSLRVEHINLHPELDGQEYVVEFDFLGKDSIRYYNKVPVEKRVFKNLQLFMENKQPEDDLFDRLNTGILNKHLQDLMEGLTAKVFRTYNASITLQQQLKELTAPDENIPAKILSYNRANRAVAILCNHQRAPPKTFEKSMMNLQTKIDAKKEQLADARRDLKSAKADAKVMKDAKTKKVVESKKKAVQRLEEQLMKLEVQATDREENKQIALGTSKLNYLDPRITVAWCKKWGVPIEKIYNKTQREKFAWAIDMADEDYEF
In words: Human topoisomerase I relaxation assay. Format: biochemical. The following applies: direct in vitro assay, data not shown. On the procedure:
Human topoisomerase I relaxation assay: hTopoI relaxation assays were performed as reported in Iacopetta et al.[8].

Assay [4] relates to 3T3-L1 murine fibroblasts. The assay is described as follows: MTT cell viability, 3T3-L1. To be noted: Mus musculus, non-tumoural cells, 72 h exposure, mean ± SD, read-out: Antiproliferative activity IC50, 3T3-L1. Format: cell-based.
Excerpt: as §1, §2

A further assay concerns HeLa cells. In words: TUNEL assay in HeLa cells. To be noted: concentration equal to IC50, 24 h. Format: cell-based, human. Here is the method:
Apoptosis was detected by the TUNEL assay, according to the guidelines of the manufacturer (CF™488A TUNEL Assay Apoptosis Detection Kit, Biotium, Hayward, CA)[8]. Briefly, cells were grown on glass coverslips and, after treatment, they were washed trice with PBS, then methanol-fixed at −20 °C for 15 min. Fixed cells were washed trice with 0.01% (V/V) Triton X-100 in PBS and incubated with 100 µL of TUNEL equilibration buffer for 5 min. After its removal, 50 µL of TUNEL reaction mixture containing 1 µL of terminal deoxynucleotidyl transferase (TdT) were added to each sample and incubated in a dark and humidified chamber for 2 h at 37 °C. Samples were washed trice with ice-cold phosphate-buffered saline (PBS) containing 0.1% Triton X-100 and 5 mg/mL bovine serum albumin (BSA). 2-(4-Amidinophenyl)-6-indolecarbamidine dihydrochloride (DAPI) (0.2 µg/mL) counterstain was performed (10 min, 37 °C, dark and humidified conditions). After three additional washes with cold PBS, one drop of mounting solution was added, then they were observed and imaged under a fluorescence microscope (Leica DM 6000, Leica, Frankfurt am Main, Germany) (20× magnification) with excitation/emission wavelength maxima of 490 nm/515 nm (CF^TM488A) or 350 nm/460 nm (DAPI). Representative fields were shown. The experiments were repeated three times.

Take `Cc1ccc(C)c2c1c1cc(Br)ccc1n2CCCCCCCS` [5c, 7-(6-Bromo-1,4-dimethyl-9H-carbazol-9-yl)-heptane-1-thiol]: the IC50 in assay [1] is 54.9 ± 1 µM; in assay [2], 11.3 ± 0.63 µM; in assay [3], 27.2 ± 0.75 µM; in assay [4] it was greater than 100 µM. Also, the hTopoI inhibition result at hTopoI is reported as “no inhibition”. Moreover, the “apoptosis / DNA damage (TUNEL)” value in the assay on HeLa cells is “induced DNA damage and led to cell death triggering the apoptotic mechanism”.

The IC50 is the point on the concentration scale where inhibition reaches its midpoint.
